From patent US12421253B2 (Mirati Therapeutics, Inc., priority 2020, dated 2025)
pIC50: −log10 of the molar value.

What was measured:
KRas^Q61H = KRas^Q61H (Homo sapiens, UniProt P01116, Q61H); experiment: biochemical
KRas^G13D = KRas^G13D (Homo sapiens, UniProt P01116, G13D); experiment: biochemical
KRas^G12R = target: T1, KRas^G12R (Homo sapiens, UniProt P01116, G12R); experiment: KRas binding assay (TR-FRET displacement of Cy5 labelled tracer)
T1 construct: […]; biotin (biotinylated); purchased Accelegan Inc
T1 sequence (P01116 1-169 isoform P01116-2 G12R): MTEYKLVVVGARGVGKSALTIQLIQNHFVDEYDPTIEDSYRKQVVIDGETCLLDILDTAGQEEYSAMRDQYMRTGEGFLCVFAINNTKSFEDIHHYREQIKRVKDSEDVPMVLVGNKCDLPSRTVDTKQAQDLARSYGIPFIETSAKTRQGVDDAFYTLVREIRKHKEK

KRas^G12A = target: T2, KRas^G12A (Homo sapiens, UniProt P01116, G12A); experiment: as above
T2 construct: […]; biotin (biotinylated); purchased Accelegan Inc
T2 sequence (P01116 1-169 isoform P01116-2 G12A): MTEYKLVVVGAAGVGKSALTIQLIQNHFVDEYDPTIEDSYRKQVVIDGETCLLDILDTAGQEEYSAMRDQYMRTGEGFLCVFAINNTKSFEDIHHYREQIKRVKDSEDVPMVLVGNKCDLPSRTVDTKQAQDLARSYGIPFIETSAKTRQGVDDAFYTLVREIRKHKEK

KRas^G12C = KRas^G12C (Homo sapiens, UniProt P01116, G12C); experiment: biochemical
Chain of KRas^G12C (P01116 1-169 isoform P01116-2 G12C): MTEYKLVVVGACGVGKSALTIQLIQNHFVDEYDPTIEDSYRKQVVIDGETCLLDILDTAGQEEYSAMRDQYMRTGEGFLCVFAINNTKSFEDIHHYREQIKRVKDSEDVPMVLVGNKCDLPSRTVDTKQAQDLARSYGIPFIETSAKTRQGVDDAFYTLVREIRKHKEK

KRas^G12S = target: T3, KRas^G12S (Homo sapiens, UniProt P01116, G12S); experiment: KRas binding assay (TR-FRET displacement of Cy5 labelled tracer)
T3 construct: […]; biotin (biotinylated); purchased Accelegan Inc
T3 sequence (P01116 1-169 isoform P01116-2 G12S): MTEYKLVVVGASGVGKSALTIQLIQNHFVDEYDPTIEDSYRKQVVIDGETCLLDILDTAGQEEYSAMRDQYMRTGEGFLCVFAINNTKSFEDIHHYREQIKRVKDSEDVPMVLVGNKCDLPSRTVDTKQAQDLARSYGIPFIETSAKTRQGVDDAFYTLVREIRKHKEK

KRas^WT = target: T4, KRas^WT (Homo sapiens, UniProt P01116); experiment: as above
T4 construct: […]; biotin (biotinylated); purchased Accelegan Inc
T4 sequence (P01116 1-169 isoform P01116-2): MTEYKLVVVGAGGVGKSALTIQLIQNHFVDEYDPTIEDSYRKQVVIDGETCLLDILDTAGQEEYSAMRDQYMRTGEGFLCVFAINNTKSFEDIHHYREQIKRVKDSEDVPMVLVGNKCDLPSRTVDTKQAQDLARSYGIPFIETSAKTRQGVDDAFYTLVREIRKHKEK

KRas^G12V = target: T5, KRas^G12V (Homo sapiens, UniProt P01116, G12V); experiment: as above
T5 construct: […]; biotin (biotinylated); purchased Accelegan Inc
T5 sequence (P01116 1-169 isoform P01116-2 G12V): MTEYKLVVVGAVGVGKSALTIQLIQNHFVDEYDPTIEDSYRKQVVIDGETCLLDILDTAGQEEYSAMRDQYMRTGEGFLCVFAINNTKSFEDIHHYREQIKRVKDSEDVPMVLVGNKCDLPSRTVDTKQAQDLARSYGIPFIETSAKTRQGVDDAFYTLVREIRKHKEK

KRas^G12D = target: T6, KRas^G12D (Homo sapiens, UniProt P01116, G12D); experiment: as above
T6 construct: […]; biotin (biotinylated); purchased Accelegan Inc
T6 sequence (P01116 1-169 isoform P01116-2 G12D): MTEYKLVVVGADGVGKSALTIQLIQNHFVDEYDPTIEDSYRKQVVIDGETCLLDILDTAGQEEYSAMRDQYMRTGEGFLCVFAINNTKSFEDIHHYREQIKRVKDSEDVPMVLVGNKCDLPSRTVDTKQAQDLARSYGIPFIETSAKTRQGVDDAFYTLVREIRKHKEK

Chain of KRas^G13D (P01116 1-169 isoform P01116-2 G13D): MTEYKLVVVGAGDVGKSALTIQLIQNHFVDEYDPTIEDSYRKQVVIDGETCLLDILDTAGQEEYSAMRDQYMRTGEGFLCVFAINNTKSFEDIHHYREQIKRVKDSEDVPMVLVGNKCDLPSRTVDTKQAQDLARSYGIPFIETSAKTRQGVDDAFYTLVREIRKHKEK
Chain of KRas^Q61H (P01116 1-169 isoform P01116-2 Q61H): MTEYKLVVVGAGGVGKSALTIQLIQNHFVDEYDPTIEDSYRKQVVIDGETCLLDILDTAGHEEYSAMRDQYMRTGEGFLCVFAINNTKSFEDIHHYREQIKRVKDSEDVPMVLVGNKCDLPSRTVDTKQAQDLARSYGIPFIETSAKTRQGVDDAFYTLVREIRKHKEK

pIC50 (KRas^Q61H) | pIC50 (KRas^G13D) | pIC50 (KRas^G12R) | pIC50 (KRas^G12A) | pIC50 (KRas^G12C) | pIC50 (KRas^G12S) | pIC50 (KRas^WT) | pIC50 (KRas^G12V) | pIC50 (KRas^G12D) | Structure (SMILES)
4.70 | 4.81 | 5.04 | 4.62 | 5.15 | 4.98 | 4.76 | 5.71 | 5.20 | CCc1cccc2cccc(N3CCc4c(nc(OCC56CCCN5CCC6)nc4NCc4nc5ncccc5o4)C3)c12 [Example 157, 7-(8-ethylnaphthalen-1-yl)-N-(oxazolo[4,5-b]pyridin-2-ylmethyl)-2-((tetrahydro-1H-pyrrolizin-7a(5H)-yl)methoxy)-5,6,7,8-tetrahydropyrido[3,4-d]pyrimidin-4-amine]
6.59 | 6.67 | 6.55 | 6.37 | 6.68 | 7.17 | 6.70 | 6.89 | 6.92 | Cc1cccc2cccc(N3CCc4c(nc(OCC56CCCN5CCC6)nc4N4CC5C(=O)NC(=O)C5C4)C3)c12 (stereo not drawn) [Example 80, 5-(2-((hexahydro-1H-pyrrolizin-7a-yl)methoxy)-7-(8-methylnaphthalen-1-yl)-5,6,7,8-tetrahydropyrido[3,4-d]pyrimidin-4-yl)tetrahydropyrrolo[3,4-c]pyrrole-1,3(2H,3aH)-dione]
4.77 | 4.79 | 4.93 | 4.56 | 4.82 | 4.78 | 4.77 | 5.23 | 4.60 | CCc1cccc2cccc(N3CCc4c(nc(OCC56CCCN5CCC6)nc4NC4CC5CC5C4)C3)c12 (stereo not drawn) [Example 170, N-(bicyclo[3.1.0]hexan-3-yl)-7-(8-ethylnaphthalen-1-yl)-2-((tetrahydro-1H-pyrrolizin-7a(5H)-yl)methoxy)-5,6,7,8-tetrahydropyrido[3,4-d]pyrimidin-4-amine]
6.49 | 6.61 | 6.55 | 6.52 | 6.46 | 6.47 | 6.63 | 6.53 | 6.27 | CCc1cccc2cccc(N3CCc4c(nc(OCC56CCCN5CCC6)nc4N4CCC(O)CC(C)C4)C3)c12 (stereo not drawn) [Example 92, 1-(7-(8-ethylnaphthalen-1-yl)-2-((tetrahydro-1H-pyrrolizin-7a(5H)-yl)methoxy)-5,6,7,8-tetrahydropyrido[3,4-d]pyrimidin-4-yl)-6-methylazepan-4-ol]
6.82 | 6.95 | 6.87 | 6.89 | 6.94 | 7.46 | 6.96 | 7.17 | 7.28 | O=C1NC(=O)C2CN(c3nc(OCC45CCCN4CCC5)nc4c3CCN(c3cccc5cccc(Cl)c35)C4)CC12 (stereo not drawn) [Example 79, 5-(7-(8-chloronaphthalen-1-yl)-2-((hexahydro-1H-pyrrolizin-7a-yl)methoxy)-5,6,7,8-tetrahydropyrido[3,4-d]pyrimidin-4-yl)tetrahydropyrrolo[3,4-c]pyrrole-1,3(2H,3aH)-dione]
5.34 | 5.26 | 5.85 | 5.60 | 5.83 | 5.55 | 5.46 | 5.93 | 4.91 | CCc1cccc2cccc(N3CCc4c(nc(OCC56CCCN5CCC6)nc4Nc4cnn(CC(N)=O)c4)C3)c12 [Example 139, 2-(4-((7-(8-ethylnaphthalen-1-yl)-2-((tetrahydro-1H-pyrrolizin-7a(5H)-yl)methoxy)-5,6,7,8-tetrahydropyrido[3,4-d]pyrimidin-4-yl)amino)-1H-pyrazol-1-yl)acetamide]
5.09 | 5.19 | 5.33 | 5.14 | 5.46 | 5.38 | 5.07 | 5.47 | 5.76 | CCc1cccc2cccc(N3CCc4c(nc(OCC56CCCN5CCC6)nc4NC4CCNC(=O)C4)C3)c12 (stereo not drawn) [Example 153, 4-((7-(8-ethylnaphthalen-1-yl)-2-((tetrahydro-1H-pyrrolizin-7a(5H)-yl)methoxy)-5,6,7,8-tetrahydropyrido[3,4-d]pyrimidin-4-yl)amino)piperidin-2-one]
